Source: patent US9796733B2, “Imidazo-pyrazine derivatives useful as soluble guanylate cyclase activators” (Merck Sharp & Dohme Corp., priority 2014, dated 2017)

What was measured:
[1] = system: Spontaneously hypertensive rats (SHR); assay: Acute efficacy in spontaneously hypertensive rats (SHR): telemetry blood pressure lowering after a single oral dose; assay type: in vivo, rat
Procedure, shortened: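 Male SHR carrying aortic telemetry implants (14-day recovery) received a single oral gavage of compound or vehicle (10% transcutol/20% Cremophor/70% water). Conscious blood pressure was sampled 30 s every 10 min and averaged hourly; change was taken against the prior-day vehicle baseline, reported as maximum peak SBP decrease at a given PO dose (mpk).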

[2] = target: T1, sGC α1/β1 heterodimer (Homo sapiens, UniProt Q02108+Q02153); assay: Cell-based sGC functional assay (CASA assay): cGMP generation in CHO-K1/sGC cells, HTRF detection; conditions: for Emax: CHO-K1, percent activation relative to standard Compound A in CHO-K1/sGC cells, read-out: % Act.; for EC50: inflection point (IP) of cGMP generation in CHO-K1/sGC cells, 4P fit, activity expressed as percentage of Compound A
T1 construct: expressed in transfected cells; host or cells: CHO-K1 (clone #7, CHO-K1/sGC)
T1 sequence (Q02108 1-690): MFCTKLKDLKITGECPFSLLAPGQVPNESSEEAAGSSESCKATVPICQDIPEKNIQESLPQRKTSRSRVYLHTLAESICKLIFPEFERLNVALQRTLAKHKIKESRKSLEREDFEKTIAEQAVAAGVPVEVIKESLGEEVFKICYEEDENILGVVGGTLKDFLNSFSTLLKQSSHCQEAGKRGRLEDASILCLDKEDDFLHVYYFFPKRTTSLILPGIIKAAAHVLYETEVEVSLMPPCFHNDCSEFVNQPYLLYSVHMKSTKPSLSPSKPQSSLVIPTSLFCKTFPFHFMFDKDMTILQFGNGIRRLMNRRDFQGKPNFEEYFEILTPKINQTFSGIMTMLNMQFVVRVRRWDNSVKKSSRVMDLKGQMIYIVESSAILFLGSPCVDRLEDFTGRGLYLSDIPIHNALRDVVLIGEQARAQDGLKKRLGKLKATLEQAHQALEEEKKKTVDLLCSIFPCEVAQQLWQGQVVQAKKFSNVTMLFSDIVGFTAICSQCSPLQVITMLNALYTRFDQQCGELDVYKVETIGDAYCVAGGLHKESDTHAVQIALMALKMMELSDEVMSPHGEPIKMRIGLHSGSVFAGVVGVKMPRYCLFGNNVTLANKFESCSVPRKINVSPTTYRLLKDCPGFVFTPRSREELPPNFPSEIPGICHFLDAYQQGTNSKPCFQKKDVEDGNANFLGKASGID
T1 sequence (Q02153 1-619): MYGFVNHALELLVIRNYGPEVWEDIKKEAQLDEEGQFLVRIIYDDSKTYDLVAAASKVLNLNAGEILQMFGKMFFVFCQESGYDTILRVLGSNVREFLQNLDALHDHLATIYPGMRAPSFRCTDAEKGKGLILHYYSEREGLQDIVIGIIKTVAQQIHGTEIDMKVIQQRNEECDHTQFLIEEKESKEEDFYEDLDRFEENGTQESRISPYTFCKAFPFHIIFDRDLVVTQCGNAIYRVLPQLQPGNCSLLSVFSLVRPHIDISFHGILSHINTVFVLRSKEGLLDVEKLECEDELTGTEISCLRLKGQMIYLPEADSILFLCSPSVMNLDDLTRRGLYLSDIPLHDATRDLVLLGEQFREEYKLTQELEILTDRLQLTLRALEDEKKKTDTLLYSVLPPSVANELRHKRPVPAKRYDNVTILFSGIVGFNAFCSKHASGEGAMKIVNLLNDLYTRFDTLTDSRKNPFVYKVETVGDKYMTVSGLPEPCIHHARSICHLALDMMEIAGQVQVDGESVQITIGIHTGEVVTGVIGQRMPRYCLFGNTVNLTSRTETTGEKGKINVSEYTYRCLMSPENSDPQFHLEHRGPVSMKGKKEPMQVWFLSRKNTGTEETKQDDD
Procedure, shortened: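 Stable CHO-K1/sGC cells in EBSS buffer with 5 mM MgCl2, 0.05% BSA and 0.5 mM IBMX were incubated with compound (2.5% DMSO final) ±1 μM DETA-NO for 1 hr at 37° C. cGMP was measured by HTRF. Activation is expressed as % of reference HDA Compound A maximum, with IP and max fold induction from a 4P fit.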

Emax [2]	EC50 [2]	Structure (SMILES)	Maximum peak decrease of systolic blood pressure (SBP) in SHR, Cat. ([1]; P.O. 3.0 mpk)	Maximum peak decrease of systolic blood pressure (SBP) in SHR, Cat. ([1]; P.O. 1.0 mpk)	Maximum peak decrease of systolic blood pressure (SBP) in SHR, Cat. ([1]; P.O. 0.3 mpk)
143%	211 nM	CC1(c2ccc(C(F)(F)F)cc2)C(=O)Nc2nc(-c3cn4ccnc4c(CCC(F)(F)F)n3)nc(N)c21 (stereo not drawn) [Example 189B, 4-amino-5-methyl-5-(4-(trifluoromethyl)phenyl)-2-(8-(3,3,3-trifluoropropyl)imidazo[1,2-a]pyrazin-6-yl)-5H-pyrrolo[2,3-d]pyrimidin-6(7H)-one]	B (Category B=SBP in SHRs 20-40 mmHg)		
90%	114 nM	Nc1nc(-c2cn3ccnc3c(CCC(F)(F)F)n2)nc2c1C(c1ccc(Cl)c(F)c1)(C1CC1)C(=O)N2 (stereo not drawn) [Example 190A, 4-amino-5-(4-chloro-3-fluorophenyl)-5-cyclopropyl-2-(8-(3,3,3-trifluoropropyl)imidazo[1,2-a]pyrazin-6-yl)-5H-pyrrolo[2,3-d]pyrimidin-6(7H)-one]	C (Category C=SBP in SHRs>40 mmHg)		
111%	355 nM	CC1(c2ccc(F)c(Cl)c2)C(=O)Nc2nc(-c3cn4ccnc4c(CCC(F)(F)F)n3)nc(N)c21 (stereo not drawn) [Example 193B, 4-amino-5-(3-chloro-4-fluorophenyl)-5-methyl-2-(8-(3,3,3-trifluoropropyl)imidazo[1,2-a]pyrazin-6-yl)-5H-pyrrolo[2,3-d]pyrimidin-6(7H)-one]	B (Category B=SBP in SHRs 20-40 mmHg)		
116%	268 nM	Nc1nc(-c2cn3ccnc3c(CCC(F)(F)F)n2)nc2c1C(c1ccc(F)cc1)(C1CC1)C(=O)N2 (stereo not drawn) [Example 194B, 4-amino-5-cyclopropyl-5-(4-fluorophenyl)-2-(8-(3,3,3-trifluoropropyl)imidazo[1,2-a]pyrazin-6-yl)-5H-pyrrolo[2,3-d]pyrimidin-6(7H)-one]	C (Category C=SBP in SHRs>40 mmHg)		
66%	163 nM	CCC1(c2ccc(Br)cc2)C(=O)Nc2nc(-c3cn4ccnc4c(CCC(F)(F)F)n3)nc(N)c21 (stereo not drawn) [Example 197A, 4-amino-5-(4-bromophenyl)-5-ethyl-2-(8-(3,3,3-trifluoropropyl)imidazo[1,2-a]pyrazin-6-yl)-5H-pyrrolo[2,3-d]pyrimidin-6(7H)-one]	B (Category B=SBP in SHRs 20-40 mmHg)		
112%	492 nM	Nc1nc(-c2cn3ccnc3c(CCC(F)(F)F)n2)nc2c1C(c1ccc(Cl)cc1)(C1CC1)C(=O)N2 (stereo not drawn) [Example 198B, 4-amino-5-(4-chlorophenyl)-5-cyclopropyl-2-(8-(3,3,3-trifluoropropyl)imidazo[1,2-a]pyrazin-6-yl)-5H-pyrrolo[2,3-d]pyrimidin-6(7H)-one]		B (Category B=SBP in SHRs 20-40 mmHg)	
101%	544 nM	CCC1(c2ccc(Cl)c(F)c2)C(=O)Nc2nc(-c3cn4ccnc4c(CCC(F)(F)F)n3)nc(N)c21 (stereo not drawn) [Example 199A, 4-amino-5-(4-chloro-3-fluorophenyl)-5-ethyl-2-(8-(3,3,3-trifluoropropyl)imidazo[1,2-a]pyrazin-6-yl)-5H-pyrrolo[2,3-d]pyrimidin-6(7H)-one]	B (Category B=SBP in SHRs 20-40 mmHg)		
140%	928 nM	CC1(c2ccc(Cl)cn2)C(=O)Nc2nc(-c3cn4ccnc4c(CCC(F)(F)F)n3)nc(N)c21 (stereo not drawn) [Example 201A, 4-amino-5-(5-chloropyridin-2-yl)-5-methyl-2-(8-(3,3,3-trifluoropropyl)imidazo[1,2-a]pyrazin-6-yl)-5H-pyrrolo[2,3-d]pyrimidin-6(7H)-one]	C (Category C=SBP in SHRs>40 mmHg)		
91%	870 nM	CC1(c2ccc(F)cn2)C(=O)Nc2nc(-c3cn4ccnc4c(CCC(F)(F)F)n3)nc(N)c21 (stereo not drawn) [Example 202B, 4-amino-5-(5-fluoropyridin-2-yl)-5-methyl-2-(8-(3,3,3-trifluoropropyl)imidazo[1,2-a]pyrazin-6-yl)-5H-pyrrolo[2,3-d]pyrimidin-6(7H)-one]	B (Category B=SBP in SHRs 20-40 mmHg)		
127%	20 nM	Nc1nc(-c2cn3ccnc3c(CCCC(F)(F)F)n2)nc2c1C(c1ccc(F)cc1)(C1CC1)C(=O)N2 (stereo not drawn) [Example 205B, 4-amino-5-cyclopropyl-5-(4-fluorophenyl)-2-(8-(4,4,4-trifluorobutyl)imidazo[1,2-a]pyrazin-6-yl)-5H-pyrrolo[2,3-d]pyrimidin-6(7H)-one]			C (Category C=SBP in SHRs>40 mmHg)
121%	44 nM	CC1(c2ccc(OC(F)(F)F)cc2)C(=O)Nc2nc(-c3cn4ccnc4c(CCCC(F)(F)F)n3)nc(N)c21 (stereo not drawn) [Example 207B, 4-amino-5-methyl-2-(8-(4,4,4-trifluorobutyl)imidazo[1,2-a]pyrazin-6-yl)-5-(4-(trifluoromethoxy)phenyl)-5H-pyrrolo[2,3-d]pyrimidin-6(7H)-one]			B (Category B=SBP in SHRs 20-40 mmHg)
88%	36 nM	CC1(c2ccc(Cl)cn2)C(=O)Nc2nc(-c3cn4ccnc4c(CCCC(F)(F)F)n3)nc(N)c21 (stereo not drawn) [Example 208A, 4-amino-5-(5-chloropyridin-2-yl)-5-methyl-2-(8-(4,4,4-trifluorobutyl)imidazo[1,2-a]pyrazin-6-yl)-5H-pyrrolo[2,3-d]pyrimidin-6(7H)-one]			C (Category C=SBP in SHRs>40 mmHg)
111%	49 nM	CCC1(c2ccc(Cl)cc2)C(=O)Nc2nc(-c3cn4ccnc4c(CCCC(F)(F)F)n3)nc(N)c21 (stereo not drawn) [Example 209B, 4-amino-5-(4-chlorophenyl)-5-ethyl-2-(8-(4,4,4-trifluorobutyl)imidazo[1,2-a]pyrazin-6-yl)-5H-pyrrolo[2,3-d]pyrimidin-6(7H)-one]			B (Category B=SBP in SHRs 20-40 mmHg)
97%	40 nM	CC1(c2ccc(F)cn2)C(=O)Nc2nc(-c3cn4ccnc4c(CCCC(F)(F)F)n3)nc(N)c21 (stereo not drawn) [Example 210B, 4-amino-5-(5-fluoropyridin-2-yl)-5-methyl-2-(8-(4,4,4-trifluorobutyl)imidazo[1,2-a]pyrazin-6-yl)-5H-pyrrolo[2,3-d]pyrimidin-6(7H)-one]			A (Category A=SBP in SHRs<20 mmHg)
122%	75 nM	CC1(c2ccc(F)cc2)C(=O)Nc2nc(-c3cn4ccnc4c(CCCC(F)(F)F)n3)nc(N)c21 (stereo not drawn) [Example 211A, 4-amino-5-(4-fluorophenyl)-5-methyl-2-(8-(4,4,4-trifluorobutyl)imidazo[1,2-a]pyrazin-6-yl)-5H-pyrrolo[2,3-d]pyrimidin-6(7H)-one]			A (Category A=SBP in SHRs<20 mmHg)
89%	100 nM	CC1(c2ccc(C(F)(F)F)cn2)C(=O)Nc2nc(-c3cn4ccnc4c(CCCC(F)(F)F)n3)nc(N)c21 (stereo not drawn) [Example 213B, 4-amino-5-methyl-2-(8-(4,4,4-trifluorobutyl)imidazo[1,2-a]pyrazin-6-yl)-5-(5-(trifluoromethyl)pyridin-2-yl)-5H-pyrrolo[2,3-d]pyrimidin-6(7H)-one]			B (Category B=SBP in SHRs 20-40 mmHg)
